Source: patent US11000033B2, “Ketone or oxime compound, and herbicide” (NISSAN CHEMICAL CORPORATION, priority 2014, dated 2021)

Assays:
Type in all cases: in vivo
Abutilon theophrasti = assay: Test Example 4: herbicidal effect by soil treatment (symbol M)
Method in brief: (§1)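 Seeds were sown in sterilized diluvial soil, covered with about 1.5 cm of soil, and the soil surface was sprayed with a water-diluted emulsion of the compound at a predetermined rate. Plants grew in a greenhouse at 25° C. to 30° C.; effects were scored visually 3 weeks after application.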

transplanted rice plant = assay: Test Example 1: effect on crop, application before weed generation in submerged conditions (symbol a); conditions: application herbicide amount 320 g/ha
Method in brief: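 Rice at 2.5 leaf stage transplanted into submerged soil (4 cm depth) sown with three weed species; herbicide applied before weed emergence.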

beet = assay: Test Example 5: effect on crop by foliage application, plastic box (symbol f); conditions: 320 g/ha, 3 weeks after application
Method in brief: (§2)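 Seeds were sown in spots in sterilized diluvial soil held in a plastic box 21 cm × 13 cm × 7 cm deep, covered with about 1.5 cm of soil, and grown in a greenhouse at 25° C. to 30° C.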

soybean = assay: Test Example 5: effect on crop by foliage application, plastic box (symbol d); conditions: 320 g/ha, 3 weeks after application
Method in brief: as §2

rice = assay: Test Example 4: effect on crop by soil treatment (symbol b); conditions: for b: directly sowed rice plant, effect grade on crop: 320 g/ha
Method in brief: (§3)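 Diluvial soil (sterilized) in boxes; seeds placed spot-wise alongside weed species; ~1.5 cm covering soil. Greenhouse, 25–30° C.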

Alopecurus myosuroides = assay: Test Example 5: herbicidal effect by foliage application, plastic box (symbol J); conditions: 320 g/ha, 3 weeks after application
Method in brief: (§4)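 Leaf-applied emulsion, water-diluted to a preset herbicide dose, on two-week-old seedlings raised in a 25° C. to 30° C. greenhouse; injury rated at 3 weeks using earlier criteria.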

[1] = tested on: Echinochloa crus-galli var. crus-galli; assay: Test Example 5: herbicidal effect by foliage application, plastic box (symbol H); conditions: 320 g/ha, 3 weeks after application
Method in brief: as §4

Stellaria media = assay: Test Example 4: herbicidal effect by soil treatment (symbol P)
Method in brief: as §1

corn [2] = assay: Test Example 4: effect on crop by soil treatment (symbol c); conditions: for c: corn, effect grade on crop: 320 g/ha
Method in brief: as §3

[3] = tested on: Echinochloa crus-galli var. crus-galli; assay: Test Example 4: herbicidal effect by soil treatment (symbol H)
Method in brief: as §1

Cyperus difformis = assay: Test Example 3: herbicidal effect by foliage application, Wagner pot (symbol E); conditions: application herbicide amount 320 g/ha
Method in brief: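 Weeds and rice were sown in alluvial soil under 0.1–0.5 cm of standing water and grown for 14 days in a 25–30 °C greenhouse. An emulsion of the compound, diluted in water to a set dose, was sprayed evenly onto the foliage. Effect was scored against fixed criteria 3 weeks after treatment.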

corn [4] = assay: Test Example 5: effect on crop by foliage application, plastic box (symbol c); conditions: 320 g/ha, 3 weeks after application
Method in brief: as §2

Scirpus juncoides = assay: Test Example 2: herbicidal activity, application during weed generation in submerged conditions (symbol B); conditions: Table 23; application herbicide amount 320 g/ha; grade 0-5 by criteria of Test Example 1
Method in brief: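 Alluvial soil in pots was flooded to a 4 cm water depth and sown with a mix of the three weed species, then grown in a greenhouse at 25° C. to 30° C. At the one- to two-leaf stage, an emulsifiable formulation diluted in water to a set dose was applied to the water surface. Effects were scored visually 3 weeks later.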

[5] = application herbicide amount 320 g/ha

Compound	M: Abutilon theophrasti, herbicidal effect grade (Abutilon theophrasti; 320 g/ha)	Effect grade on crop, a: transplanted rice plant (transplanted rice plant)	f: beet, effect on crop grade (beet)	d: soybean, effect on crop grade (soybean)	b: directly sowed rice plant, effect grade on crop (rice)	J: Alopecurus myosuroides, herbicidal effect grade (Alopecurus myosuroides)	H: Echinochloa crus-galli var. crus-galli, herbicidal effect grade [1]	P: Stellaria media, herbicidal effect grade (Stellaria media; 320 g/ha)	c: corn, effect grade on crop (corn [2])	H: Echinochloa crus-galli var. crus-galli, herbicidal effect grade ([3]; 320 g/ha)	herbicidal effect on E, grade 0-5 (Cyperus difformis)	c: corn, effect on crop grade (corn [4])	Herbicidal effect grade, B: Scirpus juncoides (Scirpus juncoides)	f: beet, effect on crop (criteria 0-5) (beet)	d: soybean, effect on crop (criteria 0-5) (soybean)	J: Alopecurus myosuroides, herbicidal effect (criteria 0-5) (Alopecurus myosuroides)	H: Echinochloa crus-galli var. crus-galli, herbicidal effect (criteria 0-5) [1]	c: corn, effect on crop (criteria 0-5) (corn [4])	other results
CON=C(C)CC1CC(OC(=O)c2c(Cl)nn(C)c2Cl)=C(c2c(C)cc(C)cc2C)C1=O (centres unmarked) [1-160]	4 (Herbicidal ratio of 70% or higher and lower than 90%)	5 (Herbicidal ratio of 90% or more (almost completely withered))	5 (Herbicidal ratio of 90% or more (almost completely withered))	2 (Herbicidal ratio of 20% or higher and lower than 40%)	5 (Herbicidal ratio of 90% or more (almost completely withered))	5 (Herbicidal ratio of 90% or more (almost completely withered))	5 (Herbicidal ratio of 90% or more (almost completely withered))	0 (Herbicidal ratio of 5% or lower (almost no effect))	0 (Herbicidal ratio of 5% or lower (almost no effect))	5 (Herbicidal ratio of 90% or more (almost completely withered))	5 (Herbicidal ratio of 90% or more (almost completely withered))	4 (Herbicidal ratio of 70% or higher and lower than 90%)	4 (Herbicidal ratio of 70% or higher and lower than 90%)	–	–	–	–	–	–
Cc1cc(C)c(C2=C(O)CC(CC(=O)c3ccc(F)cc3)C2=O)c(C)c1 (centres unmarked) [2-032]	–	5 (Herbicidal ratio of 90% or more (almost completely withered))	0 (Herbicidal ratio of 5% or lower (almost no effect))	0 (Herbicidal ratio of 5% or lower (almost no effect))	–	4 (Herbicidal ratio of 70% or higher and lower than 90%)	5 (Herbicidal ratio of 90% or more (almost completely withered))	–	–	–	4 (Herbicidal ratio of 70% or higher and lower than 90%)	1 (Herbicidal ratio of 5% or higher and lower than 20%)	1 (Herbicidal ratio of 5% or higher and lower than 20%)	–	–	–	–	–	M: Abutilon theophrasti, herbicidal effect grade (Abutilon theophrasti; [5]): 0 (Herbicidal ratio of 5% or lower (almost no effect)); b: directly sowed rice plant, effect on crop grade (rice; [5]): 5 (Herbicidal ratio of 90% or more (almost completely withered)); P: Stellaria media, herbicidal effect grade (Stellaria media; [5]): 0 (Herbicidal ratio of 5% or lower (almost no effect)); c: corn, effect on crop grade (corn [2]; [5]): 1 (Herbicidal ratio of 5% or higher and lower than 20%); H: Echinochloa crus-galli var. crus-galli, herbicidal effect grade [3, 5]: 4 (Herbicidal ratio of 70% or higher and lower than 90%)
C=CCN(CC=C)C(=O)OC1=C(c2c(C)cc(C)cc2C)C(=O)C(CC(C)=NOC)C1 (centres unmarked) [1-153]	0 (Herbicidal ratio of 5% or lower (almost no effect))	4 (Herbicidal ratio of 70% or higher and lower than 90%)	–	–	1 (Herbicidal ratio of 5% or higher and lower than 20%)	–	–	0 (Herbicidal ratio of 5% or lower (almost no effect))	0 (Herbicidal ratio of 5% or lower (almost no effect))	0 (Herbicidal ratio of 5% or lower (almost no effect))	4 (Herbicidal ratio of 70% or higher and lower than 90%)	–	1 (Herbicidal ratio of 5% or higher and lower than 20%)	0 (Herbicidal ratio of 5% or lower (almost no effect))	1 (Herbicidal ratio of 5% or higher and lower than 20%)	5 (Herbicidal ratio of 90% or more (almost completely withered))	5 (Herbicidal ratio of 90% or more (almost completely withered))	3 (Herbicidal ratio of 40% or higher and lower than 70%)	–
CON=C(C)CC1CC(OC(=O)N2CCN(C)CC2)=C(c2c(C)cc(C)cc2C)C1=O (centres unmarked) [1-152]	0 (Herbicidal ratio of 5% or lower (almost no effect))	2 (Herbicidal ratio of 20% or higher and lower than 40%)	–	–	0 (Herbicidal ratio of 5% or lower (almost no effect))	–	–	0 (Herbicidal ratio of 5% or lower (almost no effect))	0 (Herbicidal ratio of 5% or lower (almost no effect))	0 (Herbicidal ratio of 5% or lower (almost no effect))	5 (Herbicidal ratio of 90% or more (almost completely withered))	–	0 (Herbicidal ratio of 5% or lower (almost no effect))	0 (Herbicidal ratio of 5% or lower (almost no effect))	1 (Herbicidal ratio of 5% or higher and lower than 20%)	5 (Herbicidal ratio of 90% or more (almost completely withered))	5 (Herbicidal ratio of 90% or more (almost completely withered))	2 (Herbicidal ratio of 20% or higher and lower than 40%)	–
CON=C(C)CC1CC(OCC#N)=C(c2c(C)cc(C)cc2C)C1=O (centres unmarked) [1-013]	–	0 (Herbicidal ratio of 5% or lower (almost no effect))	0 (Herbicidal ratio of 5% or lower (almost no effect))	0 (Herbicidal ratio of 5% or lower (almost no effect))	–	4 (Herbicidal ratio of 70% or higher and lower than 90%)	0 (Herbicidal ratio of 5% or lower (almost no effect))	–	–	–	0 (Herbicidal ratio of 5% or lower (almost no effect))	0 (Herbicidal ratio of 5% or lower (almost no effect))	0 (Herbicidal ratio of 5% or lower (almost no effect))	–	–	–	–	–	M (Abutilon theophrasti) herbicidal effect grade (Abutilon theophrasti; [5]): 0 (Herbicidal ratio of 5% or lower (almost no effect)); b (directly sowed rice plant) effect on crop grade (rice; [5]): 0 (Herbicidal ratio of 5% or lower (almost no effect)); P (Stellaria media) herbicidal effect grade (Stellaria media; [5]): 0 (Herbicidal ratio of 5% or lower (almost no effect)); c (corn) effect on crop grade (corn [2]; [5]): 0 (Herbicidal ratio of 5% or lower (almost no effect)); H (Echinochloa crus-galli var. crus-galli) herbicidal effect grade [3, 5]: 0 (Herbicidal ratio of 5% or lower (almost no effect))
